Experimental data reported in US20060142384A1, “2-Oxyamino-1-cyclopentene-1-nitriles as material protective agents” (priority 2002, published 2006).

Key:
Type in all cases: cell-based
Chaetomium globosum = test: MIC on malt extract agar against fungi; conditions: 336 h, 2 weeks at 28° C., 60 to 70% relative atmospheric humidity, read-out: Minimum inhibitory concentrations Chaetomium globosum
Description: (§1) The MIC was determined after 2 weeks of storage at 28° C. and 60 to 70% relative atmospheric humidity.

Penicillium brevicaule = test: MIC on malt extract agar against fungi; conditions: 336 h, 2 weeks at 28° C., 60 to 70% relative atmospheric humidity, read-out: Minimum inhibitory concentrations Penicillium brevicaule
Description: as §1

Bacillus subtilis = test: MIC on Landy agar against bacteria; conditions: 72 h, 3 days at 28° C., 60-70% relative atmospheric humidity, read-out: Minimum inhibitory concentrations Bacillus subtilis
Description: (§2) A defined Landy Agar was admixed with the active compounds according to the invention in concentrations of […]. The MIC was determined after 3 days of storage at 28° C. and 60-70% relative atmospheric humidity.

Pseudomonas aeroginosa = test: MIC on Landy agar against bacteria; conditions: 72 h, 3 days at 28° C., 60-70% relative atmospheric humidity, read-out: Minimum inhibitory concentrations Pseudomonas aeroginosa
Description: as §2

| SMILES | MIC (Chaetomium globosum) [µg/mL] | MIC (Penicillium brevicaule) [µg/mL] | MIC (Bacillus subtilis) [µg/mL] | MIC (Pseudomonas aeroginosa) [µg/mL] |
| --- | --- | --- | --- | --- |
| N#CC1=C(NOCc2ccc(Cl)cc2)CCC1 [Example 14] | < 400 | < 400 |  |  |
| N#CC1=C(NO)CCC1 [Example 1, 2-(Hydroxyamino)-1-cyclopentene-1-carbonitrile] |  |  | < 400 | < 400 |
| Cc1ccc(CONC2=C(C#N)CCC2)cc1 [Example 12] | < 400 | < 400 |  |  |
| CC(C)C(=O)ON(C(=O)C(C)C)C1=C(C#N)CCC1 [Example 4, N-(2-Cyano-1-cyclopenten-1-yl)-N-(isobutyryloxy)-2-methylpropanamide] | < 400 | < 400 | < 400 | < 400 |
| N#CC1=C(NOCc2ccccc2)CCC1 [Example 3, 2-[(Benzyloxy)amino]-1-cyclopentene-1-carbonitrile] | < 400 | < 400 |  |  |
